Reference: patent US20260183223A1, “A PERSONAL CARE COMPOSITION” (Conopco, Inc., d/b/a UNILEVER, priority 2022, published 2026)

Test system: collagen type III alpha I chain (COL3A1) gene
Experiment: Gene expression test: COL3A1 by RT-PCR in normal human dermal fibroblasts
Format: cell-based
Conditions: normal human dermal fibroblasts (NHDF), 48 hours incubation with actives in medium; normalized to ACTB; fold change relative to blank control; actives in wt % of medium
Description: The normal human dermal fibroblasts (NHDF, Biocell, Xi′an, China, Cat: Fb20081902) were incubated in medium together with or without actives for 48 hours. After incubation, the total RNA for each […] was extracted using RNAex Pro reagent (Accurate Biotechnology, Cat: AG21102) according to manufacturer's protocol.
The extracted RNA was quantified using Nanodrop 2000 spectrometer (Thermo Fisher Scientific, Waltham, MA, US) and reverse transcribed to generate the template cDNA using the Evo M-MLV RT Premix for qPCR (Accurate Biotechnology, Cat: AG11706) according to manufacturer's protocol. Amplification of the gene encoding collagen type III alpha I chain (COL3A1) gene was performed with RT-PCR reagent (SYBR® Green Premix Pro Taq HS qPCR Kit, Accurate Biotechnology, Cat: AG11701) on the ABI Vii 7 Real-Time PCR Systems (Applied Biosystems, Thermo fisher scientific, Carlsbad, CA, USA). The beta-actin (ACTB) gene was selected as the housekeeping gene and all data on relative expression of the target genes was normalized to ACTB gene. The fold changes in expression were calculated relative to the blank control (medium having no active).

Substance: Lysine carboxymethyl cysteinate
- Fold change of expression of COL3A1: 1.1
